Values of other authors as cited in US6319912A, “Cyclic regimens using 2,1-benzisothiazoline 2,2-dioxides” (American Home Products Corporation, priority 2000, dated 2001).

System: hormone dependent prostate cancer
Conditions: literature, Michna et al 1995

Row | Compound | effectiveness in a model of hormone dependent prostate cancer
1 | CC#C[C@]1(O)CC[C@H]2[C@@H]3CCC4=CC(=O)CCC4=C3[C@@H](c3ccc(N(C)C)cc3)C[C@@]21C [mifepristone] | effective
2 | CN(C)c1ccc([C@H]2C[C@]3(C)[C@@H](CC[C@]3(O)CCCO)[C@@H]3CCC4=CC(=O)CCC4=C32)cc1 [onapristone] | effective
